In patent publication US20130030017A1, “QUINOLINE DERIVATIVES AS ANTIBACTERIAL AGENTS” (priority 2005, published 2013):
In brackets after ≈: the same amount, converted by molar mass.

Key:
Format in all cases: cell-based
[1] = tested on: Enterococcus faecalis (ATCC29212); assay: Microtitre plate assay, IC90 determination (EFA 29212); conditions: 90% inhibitory concentration for bacterial growth, 37° C., resazurin fluorescence; for IC90 EFA 29212: 24 hours; for IC90: Enterococcus faecalis, ATCC29212, 24 h
Procedure: (§1) The bacteria used in this study were grown overnight in flasks containing 100 ml Mueller-Hinton Broth (Becton Dickinson—cat. no. 275730) in sterile de-ionized water, with shaking, at 37° C. Stocks (0.5 ml/tube) were stored at −70° C. until use. Bacteria titrations were performed in microtiter plates and colony forming units (CFUs) were determined. In general, an inoculum level of approximately 100 CFUs was used for susceptibility testing.
(§2) Flat-bottom, sterile 96-well plastic microtiter plates were filled with 180 μl of sterile deionized water, supplemented with 0.25% BSA. Subsequently, stock solutions (7.8× final test concentration) of compounds were added in 45 μl volumes in column 2 Serial five-fold dilutions (45 μl in 180 μl) were made directly in the microtiter plates from column 2 to reach column 11. Untreated control samples with (column 1) and without (column 12) inoculum were included in each microtiter plate. Depending on the bacteria type, approximately 10 to 60 CFU per well of bacteria inoculum (100 TCID50), in a volume of 100 μl in 2.8× Mueller-Hinton broth medium, was added to the rows A to H, except column 12. The same volume of broth medium without inoculum was added to column 12 in row A to H. The cultures were incubated at 37° C. for 24 hours under a normal atmosphere (incubator with open air valve and continuous ventilation). At the end of incubation, one day after inoculation, the bacterial growth was quantitated fluorometrically. Therefore resazurin (0.6 mg/ml) was added in a volume of 20 μl to all wells 3 hours after inoculation, and the plates were re-incubated overnight. A change in colour from blue to pink indicated the growth of bacteria. The fluorescence was read in a computer-controlled fluorometer (Cytofluor Biosearch) at an excitation wavelength of 530 nm and an emission wavelength of 590 nm. The % growth inhibition achieved by the compounds was calculated according to standard methods. The IC90 (expressed in μg/ml) was defined as the 90% inhibitory concentration for bacterial growth.

[2] = tested on: Pseudomonas aeruginosa (ATCC27853); assay: Microtitre plate assay, IC90 determination (PAE 27853); conditions: 90% inhibitory concentration for bacterial growth, 37° C., resazurin fluorescence; for IC90 PAE 27853: 24 hours; for IC90: Pseudomonas aeruginosa, ATCC27853, 24 h
Procedure: as §1, §2

[3] = tested on: Streptococcus pneumoniae (ATCC6305); assay: Microtitre plate assay, IC90 determination (SPN 6305); conditions: 90% inhibitory concentration for bacterial growth, 37° C., resazurin fluorescence; for IC90 SPN 6305: 24 hours; for IC90: Streptococcus pneumoniae, ATCC6305, 24 h
Procedure: as §1, §2

[4] = tested on: Streptococcus pyogens (ATCC8668); assay: Microtitre plate assay, IC90 determination (SPY 8668); conditions: 90% inhibitory concentration for bacterial growth, 37° C., resazurin fluorescence; for IC90 SPY 8668: 24 hours; for IC90: Streptococcus, ATCC8668, 24 h
Procedure: as §1, §2

[5] = tested on: Staphylococcus aureus (ATCC29213); assay: Microtitre plate assay, IC90 determination (STA 29213); conditions: 90% inhibitory concentration for bacterial growth, 37° C., resazurin fluorescence; for IC90 STA 29213: 24 hours; for IC90: Staphylococcus aureus, ATCC29213, 24 h
Procedure: as §1, §2

Row | Compound | IC90 EFA 29212 [1] [µg/mL] | IC90 PAE 27853 [2] [µg/mL] | IC90 SPN 6305 [3] [µg/mL] | IC90 SPY 8668 [4] [µg/mL] | IC90 STA 29213 [5] [µg/mL] | IC90 [5] [µg/mL] | IC90 [2] [µg/mL] | IC90 [4] [µg/mL] | IC90 [1] [µg/mL] | IC90 [3] [µg/mL]
1 | COc1nc2ccc(Br)cc2cc1C(c1ccccc1)C(O)(CCc1ccccc1)CCN(C)C (stereo not drawn) [Compound 18] | 10.6 (≈ 19.9 µM) | 10.6 (≈ 19.9 µM) | 2.1 (≈ 3.94 µM) | 8.5 (≈ 15.9 µM) | 8.5 (≈ 15.9 µM) | – | – | – | – | –
2 | COc1nc2ccc(Br)cc2cc1C(c1ccccc1)C(O)(CCc1ccccc1)CCN(C)C (stereo not drawn) [Compound 19] | 1.7 (≈ 3.19 µM) | 1.7 (≈ 3.19 µM) | 2.1 (≈ 3.94 µM) | 1.7 (≈ 3.19 µM) | 8.5 (≈ 15.9 µM) | – | – | – | – | –
3 | COc1nc2ccc(Br)cc2cc1C(c1ccccc1)C(O)(CCc1ccccc1)CCN(C)C (stereo not drawn) [Compound 20] | 1.7 (≈ 3.19 µM) | 1.7 (≈ 3.19 µM) | 1.1 (≈ 2.06 µM) | 1.7 (≈ 3.19 µM) | – | 8.5 (≈ 15.9 µM) | – | – | – | –
4 | COc1nc2ccc(Br)cc2cc1C(c1ccccc1)C(O)(CCc1ccc(F)cc1)CCN(C)C (stereo not drawn) [Compound 26] | 1.7 (≈ 3.08 µM) | 1.7 (≈ 3.08 µM) | 2.0 (≈ 3.63 µM) | 1.7 (≈ 3.08 µM) | 4.4 (≈ 7.98 µM) | – | – | – | – | –
5 | COc1nc2ccc(Br)cc2cc1C(c1ccccc1)C(O)(CCc1ccc(F)cc1)CCN(C)C (stereo not drawn) [Compound 28] | 3.9 (≈ 7.07 µM) | 3.9 (≈ 7.07 µM) | 0.9 (≈ 1.63 µM) | 3.9 (≈ 7.07 µM) | 1.7 (≈ 3.08 µM) | – | – | – | – | –
6 | CSc1nc2ccc(Br)cc2cc1C(c1ccc(Cl)cc1)C(O)(CCc1ccccc1)CCN(C)C (stereo not drawn) [Compound 31] | – | – | 0.4 (≈ 0.685 µM) | – | 58.4 (≈ 100 µM) | – | 9.3 (≈ 15.9 µM) | 1.9 (≈ 3.25 µM) | 58.4 (≈ 100 µM) | –
7 | CN(C)CCC(O)(CCc1ccccc1)C(c1ccc(Cl)cc1)c1cc2cc(Br)ccc2nc1N(C)C (stereo not drawn) [Compound 33] | – | – | – | – | – | 1.8 (≈ 3.1 µM) | 1.8 (≈ 3.1 µM) | 1.5 (≈ 2.58 µM) | 1.8 (≈ 3.1 µM) | 0.8 (≈ 1.38 µM)
8 | COc1nc2ccc(Br)cc2cc1C(c1ccccc1)C(O)(CCc1ccc(F)cc1)CCN1CCCCC1 (stereo not drawn) [Compound 35] | – | – | 3.7 (≈ 6.25 µM) | – | – | 59.2 (≈ 100 µM) | 59.2 (≈ 100 µM) | 9.4 (≈ 15.9 µM) | 59.2 (≈ 100 µM) | –
9 | COc1nc2ccc(-c3cccnc3)cc2cc1C(c1ccccc1)C(O)(CCc1ccccc1)CCN(C)C (stereo not drawn) [Compound 36] | – | – | – | – | – | 1.7 (≈ 3.2 µM) | 42.2 (≈ 79.4 µM) | 16.8 (≈ 31.6 µM) | 42.2 (≈ 79.4 µM) | 1.7 (≈ 3.2 µM)
10 | COc1nc2ccc(Br)cc2cc1C(c1ccccc1)C(O)(CCN(C)C)Cc1cccc2ccccc12 (stereo not drawn) [Compound 42] | – | – | 2.3 (≈ 4.04 µM) | – | 9.0 (≈ 15.8 µM) | – | 10.1 (≈ 17.7 µM) | 4.5 (≈ 7.9 µM) | 22.7 (≈ 39.9 µM) | –
11 | CCOCCOCCOc1nc2ccc(Br)cc2cc1C(c1ccccc1)C(O)(CCc1ccccc1)CCN(C)C (stereo not drawn) [Compound 44] | 10.1 (≈ 15.9 µM) | 4.5 (≈ 7.08 µM) | 4.5 (≈ 7.08 µM) | 8.0 (≈ 12.6 µM) | 22.6 (≈ 35.6 µM) | – | – | – | – | –
12 | COc1ccc(C(c2cc3cc(Br)ccc3nc2OC)C(O)(CCc2ccccc2)CCN(C)C)cc1 (stereo not drawn) [Compound 73] | 8.9 (≈ 15.8 µM) | 8.0 (≈ 14.2 µM) | – | 4.0 (≈ 7.1 µM) | 7.1 (≈ 12.6 µM) | – | – | – | – | 1.8 (≈ 3.19 µM)
13 | COc1ccccc1CCC(O)(CCN(C)C)C(c1ccc(Cl)cc1)c1cc2cc(Br)ccc2nc1OC (stereo not drawn) [Compound 88] | – | – | – | – | – | 9.5 (≈ 15.9 µM) | 2.1 (≈ 3.51 µM) | 1.9 (≈ 3.18 µM) | 37.7 (≈ 63 µM) | 0.5 (≈ 0.836 µM)

More lines, now with the values ahead:

Row | IC90 EFA 29212 [1] [µg/mL] | IC90 PAE 27853 [2] [µg/mL] | IC90 SPN 6305 [3] [µg/mL] | IC90 SPY 8668 [4] [µg/mL] | IC90 STA 29213 [5] [µg/mL] | IC90 [5] [µg/mL] | IC90 [2] [µg/mL] | IC90 [4] [µg/mL] | IC90 [1] [µg/mL] | IC90 [3] [µg/mL] | Compound
14 | 9.5 (≈ 15.9 µM) | – | 0.4 (≈ 0.669 µM) | – | – | 1.9 (≈ 3.18 µM) | 1.9 (≈ 3.18 µM) | 1.9 (≈ 3.18 µM) | – | – | COc1ccc(CCC(O)(CCN(C)C)C(c2ccc(Cl)cc2)c2cc3cc(Br)ccc3nc2OC)cc1 (stereo not drawn) [Compound 22]
15 | 56.8 (≈ 100 µM) | 56.8 (≈ 100 µM) | 2.3 (≈ 4.05 µM) | 56.8 (≈ 100 µM) | 2.3 (≈ 4.05 µM) | – | – | – | – | – | COc1nc2ccc(Br)cc2cc1C(c1cccc(Cl)c1)C(O)(CCc1ccccc1)CCN(C)C (stereo not drawn) [Compound 67]
16 | – | 11.3 (≈ 19.9 µM) | 0.7 (≈ 1.23 µM) | – | – | 2.3 (≈ 4.05 µM) | – | 56.8 (≈ 100 µM) | 56.8 (≈ 100 µM) | – | COc1nc2ccc(Br)cc2cc1C(c1cccc(Cl)c1)C(O)(CCc1ccccc1)CCN(C)C (stereo not drawn) [Compound 68]
17 | – | – | – | – | – | 2.2 (≈ 4.02 µM) | 54.8 (≈ 100 µM) | 43.5 (≈ 79.4 µM) | 54.8 (≈ 100 µM) | 1.7 (≈ 3.1 µM) | COc1nc2ccc(Br)cc2cc1C(c1cccc(C)c1)C(O)(CCc1ccccc1)CCN(C)C (stereo not drawn) [Compound 71]
18 | 43.5 (≈ 79.4 µM) | 43.5 (≈ 79.4 µM) | 2.2 (≈ 4.02 µM) | 43.5 (≈ 79.4 µM) | 1.7 (≈ 3.1 µM) | – | – | – | – | – | COc1nc2ccc(Br)cc2cc1C(c1cccc(C)c1)C(O)(CCc1ccccc1)CCN(C)C (stereo not drawn) [Compound 72]
19 | 3.7 (≈ 6.31 µM) | – | – | – | 1.9 (≈ 3.24 µM) | – | 1.9 (≈ 3.24 µM) | 1.9 (≈ 3.24 µM) | – | 0.8 (≈ 1.37 µM) | COc1nc2ccc(Br)cc2cc1C(c1ccc(Cl)cc1)C(O)(CCc1cccc(F)c1)CCN(C)C (stereo not drawn) [Compound 77]
20 | 9.3 (≈ 15.9 µM) | 1.9 (≈ 3.24 µM) | 1.5 (≈ 2.56 µM) | 1.9 (≈ 3.24 µM) | 7.4 (≈ 12.6 µM) | – | – | – | – | – | COc1nc2ccc(Br)cc2cc1C(c1ccc(Cl)cc1)C(O)(CCc1cccc(F)c1)CCN(C)C (stereo not drawn) [Compound 78]
21 | – | – | – | – | – | 9.3 (≈ 15.9 µM) | 46.5 (≈ 79.4 µM) | 46.5 (≈ 79.4 µM) | 58.6 (≈ 100 µM) | 2.3 (≈ 3.93 µM) | COc1nc2ccc(Br)cc2cc1C(c1ccc(Cl)cc1)C(O)(CCc1ccc(F)cc1)CCN(C)C (stereo not drawn) [Compound 79]
22 | 8.3 (≈ 14.2 µM) | 1.9 (≈ 3.24 µM) | 1.9 (≈ 3.24 µM) | 3.3 (≈ 5.63 µM) | 9.3 (≈ 15.9 µM) | – | – | – | – | – | COc1nc2ccc(Br)cc2cc1C(c1cccc(Cl)c1)C(O)(CCc1ccc(F)cc1)CCN(C)C (stereo not drawn) [Compound 80]
23 | – | – | 0.6 (≈ 1.02 µM) | – | 1.9 (≈ 3.24 µM) | – | 1.9 (≈ 3.24 µM) | 1.9 (≈ 3.24 µM) | 9.3 (≈ 15.9 µM) | – | COc1nc2ccc(Br)cc2cc1C(c1cccc(Cl)c1)C(O)(CCc1ccc(F)cc1)CCN(C)C (stereo not drawn) [Compound 81]
24 | 1.8 (≈ 3.18 µM) | 1.8 (≈ 3.18 µM) | 2.3 (≈ 4.07 µM) | 1.8 (≈ 3.18 µM) | 1.8 (≈ 3.18 µM) | – | – | – | – | – | COc1nc2ccc(Br)cc2cc1C(c1cccc(C)c1)C(O)(CCc1ccc(F)cc1)CCN(C)C (stereo not drawn) [Compound 82]
25 | 9.0 (≈ 15.9 µM) | 4.0 (≈ 7.07 µM) | 0.5 (≈ 0.884 µM) | – | – | 1.8 (≈ 3.18 µM) | – | 1.8 (≈ 3.18 µM) | – | – | COc1nc2ccc(Br)cc2cc1C(c1cccc(C)c1)C(O)(CCc1ccc(F)cc1)CCN(C)C (stereo not drawn) [Compound 83]
26 | – | – | – | – | – | 4.6 (≈ 7.91 µM) | 46.2 (≈ 79.4 µM) | 46.2 (≈ 79.4 µM) | 58.2 (≈ 100 µM) | 2.1 (≈ 3.61 µM) | COc1ccc(C(c2cc3cc(Br)ccc3nc2OC)C(O)(CCc2ccc(F)cc2)CCN(C)C)cc1 (stereo not drawn) [Compound 84]
27 | – | – | 2.3 (≈ 3.95 µM) | – | 9.2 (≈ 15.8 µM) | – | 9.2 (≈ 15.8 µM) | 5.2 (≈ 8.93 µM) | 11.6 (≈ 19.9 µM) | – | COc1nc2ccc(Br)cc2cc1C(c1ccc(Cl)cc1)C(O)(CCc1ccc(C)cc1)CCN(C)C (stereo not drawn) [Compound 87]
